Drawing on patent US20100311714A1, “1H-IMIDAZO[4,5-c]QUINOLINONE COMPOUNDS” (priority 2009, published 2010), this text covers IC50 for ten compounds.

For this assay, the target named is T1, PI3K beta (Homo sapiens, UniProt P42338).
T1 construct: for the full-length p110-b subunit are generated and fused by overlapping PCR; His tag (C); made in house; host or cells: baculovirus BV949; Tn5 (Trichoplusia ni) or TiniPro insect cells
T1 sequence (P42338 with tags, fused parts or gaps limits assumed): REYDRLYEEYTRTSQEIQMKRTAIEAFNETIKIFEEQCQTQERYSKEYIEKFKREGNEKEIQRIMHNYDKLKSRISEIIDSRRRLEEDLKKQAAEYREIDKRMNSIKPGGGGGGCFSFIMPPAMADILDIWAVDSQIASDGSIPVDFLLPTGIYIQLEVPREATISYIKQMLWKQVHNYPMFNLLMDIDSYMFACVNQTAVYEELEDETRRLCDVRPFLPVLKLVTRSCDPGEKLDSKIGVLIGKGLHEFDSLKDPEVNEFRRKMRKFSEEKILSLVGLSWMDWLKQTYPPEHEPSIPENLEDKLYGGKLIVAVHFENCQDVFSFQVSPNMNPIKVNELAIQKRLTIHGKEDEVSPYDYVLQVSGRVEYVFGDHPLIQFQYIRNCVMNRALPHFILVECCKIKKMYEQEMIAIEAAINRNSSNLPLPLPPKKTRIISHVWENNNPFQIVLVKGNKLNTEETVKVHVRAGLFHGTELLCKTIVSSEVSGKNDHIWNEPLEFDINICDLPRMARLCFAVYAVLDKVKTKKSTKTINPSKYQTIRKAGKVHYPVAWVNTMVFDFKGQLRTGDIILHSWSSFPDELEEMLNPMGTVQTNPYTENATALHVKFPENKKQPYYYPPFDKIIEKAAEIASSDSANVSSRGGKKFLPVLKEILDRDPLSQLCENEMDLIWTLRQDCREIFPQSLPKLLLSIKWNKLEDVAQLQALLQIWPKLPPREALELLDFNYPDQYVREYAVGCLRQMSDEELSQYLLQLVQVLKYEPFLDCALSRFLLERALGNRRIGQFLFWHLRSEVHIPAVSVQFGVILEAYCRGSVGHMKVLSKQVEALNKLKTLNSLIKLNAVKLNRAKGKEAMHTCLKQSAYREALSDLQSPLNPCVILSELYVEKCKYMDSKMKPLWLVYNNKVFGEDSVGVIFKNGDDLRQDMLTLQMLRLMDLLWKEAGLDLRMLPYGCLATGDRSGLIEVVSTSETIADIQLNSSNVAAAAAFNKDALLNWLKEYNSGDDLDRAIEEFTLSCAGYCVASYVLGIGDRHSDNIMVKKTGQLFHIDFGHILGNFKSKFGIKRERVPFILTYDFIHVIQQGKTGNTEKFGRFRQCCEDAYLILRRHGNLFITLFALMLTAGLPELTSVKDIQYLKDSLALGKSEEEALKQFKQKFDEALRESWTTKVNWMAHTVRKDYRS
The assay is described as follows: PI3K beta kinase assay (Kinase-Glo luminescence). The format is biochemical. The conditions noted are these: read-out: EPK_PI3Kbeta/IC50. The method in brief:
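PI3Kβ construct BV949 (p85 iSH2–p110β full-length, C-His), 25 nM, reacted with 1 μM ATP and 10 μg/mL phosphatidylinositol in Tris pH 7.5, MgCl2, NaCl, CHAPS, DTT buffer, 60 min at room temperature. Remaining ATP by Kinase-Glo luminescence; IC50 from 4-parameter logistic fit of 8 concentrations.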
For orientation: Kinase-Glo reads ATP consumption through a luciferase reaction.
In the case of `CNc1ncc(-c2ccc3ncc4c(c3c2)n(-c2ccc(N3CC(F)(F)C3)nc2C)c(=O)n4C)cn1` [Example 24.1, 1-[6-(3,3-Difluoro-azetidin-1-yl)-2-methyl-pyridin-3-yl]-3-methyl-8-(2-methylamino-pyrimidin-5-yl)-1,3-dihydro-imidazo[4,5-c]quinolin-2-one], the IC50 was found to be 1.01 µM.

Regarding `CCOc1cc(-c2ccc3ncc4c(c3c2)n(-c2ccc(N3CCCC3)nc2C)c(=O)n4C)cnc1COC` [Example 25.2, 8-(5-Ethoxy-6-methoxymethyl-pyridin-3-yl)-3-methyl-1-(2-methyl-6-pyrrolidin-1-yl-pyridin-3-yl)-1,3-dihydro-imidazo[4,5-c]quinolin-2-one], the IC50 stood at 0.291 µM.

With `Cc1nc(N2CCCC2)ccc1-n1c(=O)n(C)c2cnc3ccc(-c4cncc(C(C)(C)O)c4)cc3c21` [Example 25.3, 8-[5-(1-Hydroxy-1-methyl-ethyl)-pyridin-3-yl]-3-methyl-1-(2-methyl-6-pyrrolidin-1-yl-pyridin-3-yl)-1,3-dihydro-imidazo[4,5-c]quinolin-2-one], the IC50 is less than 0.003 µM.

Regarding `Cc1nc(N(C)CCO)ccc1-n1c(=O)n(C)c2cnc3ccc(-c4cnc(N)c(C(F)(F)F)c4)cc3c21` [Example 26.1, 8-(6-Amino-5-trifluoromethyl-pyridin-3-yl)-1-{6-[(2-hydroxy-ethyl)-methyl-amino]-2-methyl-pyridin-3-yl}-3-methyl-1,3-dihydro-imidazo[4,5-c]quinolin-2-one], the IC50 is less than 0.003 µM.

Consider `CNc1ncc(-c2ccc3ncc4c(c3c2)n(-c2ccc(N(C)CCO)nc2C)c(=O)n4C)cn1` [Example 26.2, 1-{6-[(2-Hydroxy-ethyl)-methyl-amino]-2-methyl-pyridin-3-yl}-3-methyl-8-(2-methylamino-pyrimidin-5-yl)-1,3-dihydro-imidazo[4,5-c]quinolin-2-one], for which the IC50 amounted to 0.099 µM.

Consider `CNc1ncc(-c2ccc3ncc4c(c3c2)n(-c2ccc(N3CCC(O)C3)nc2C)c(=O)n4C)cn1` (stereo not shown) [Example 27.2, 1-[6-(3-Hydroxy-pyrrolidin-1-yl)-2-methyl-pyridin-3-yl]-3-methyl-8-(2-methylamino-pyrimidin-5-yl)-1,3-dihydro-imidazo[4,5-c]quinolin-2-one], for which the IC50 is 0.124 µM.

Regarding `COC1CCN(c2ccc(-n3c(=O)n(C)c4cnc5ccc(-c6cncc(C(C)(C)O)c6)cc5c43)c(C)n2)C1` (stereo not shown) [Example 28.1, 8-[5-(1-Hydroxy-1-methyl-ethyl)-pyridin-3-yl]-1-[6-(3-methoxy-pyrrolidin-1-yl)-2-methyl-pyridin-3-yl]-3-methyl-1,3-dihydro-imidazo[4,5-c]quinolin-2-one], the IC50 came out at 0.048 µM.

Take `CCNc1cc(-c2ccc3ncc4c(c3c2)n(-c2ccc(N3CC(O)C3)nc2C)c(=O)n4C)cnc1CO` [Example 29.2, 8-(5-Ethylamino-6-hydroxymethyl-pyridin-3-yl)-1-[6-(3-hydroxy-azetidin-1-yl)-2-methyl-pyridin-3-yl]-3-methyl-1,3-dihydro-imidazo[4,5-c]quinolin-2-one]: the IC50 turned out to be 0.677 µM.

Consider `CNc1ncc(-c2ccc3ncc4c(c3c2)n(-c2ccc(N3CC(O)C3)nc2C)c(=O)n4C)cc1F` [Example 29.3, 8-(5-Fluoro-6-methylamino-pyridin-3-yl)-1-[6-(3-hydroxy-azetidin-1-yl)-2-methyl-pyridin-3-yl]-3-methyl-1,3-dihydro-imidazo[4,5-c]quinolin-2-one], for which the IC50 came out at 0.301 µM.

Take `CNc1ncc(-c2ccc3ncc4c(c3c2)n(-c2ccc(N3CC(O)C3)nc2C)c(=O)n4C)cc1C(F)(F)F` [Example 29.4, 1-[6-(3-Hydroxy-azetidin-1-yl)-2-methyl-pyridin-3-yl]-3-methyl-8-(6-methylamino-5-trifluoromethyl-pyridin-3-yl)-1,3-dihydro-imidazo[4,5-c]quinolin-2-one]: the IC50 was found to be 0.069 µM.
